Results published in PubChem BioAssay (NCI).
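Where inhibition never reached the appropriate level, the endpoint shown equals the highest concentration tested. Otherwise, values were interpolated linearly from a five-concentration, 48-hour dose response in 96-well plates. At the TGI there is no net growth.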

Columns and labels:
Test in all cases: growth of human tumour cells (NCI), 48 h
786-0 renal = tested on: 786-0 renal
A498 renal = tested on: A498 renal
BT-549 breast = tested on: BT-549 breast
CCRF-CEM leukemia = tested on: CCRF-CEM leukemia
HCT-15 colon = tested on: HCT-15 colon
HL-60(TB) leukemia = tested on: HL-60(TB) leukemia
HOP-62 NSCLC = tested on: HOP-62 NSCLC
K-562 leukemia = tested on: K-562 leukemia
M14 melanoma = tested on: M14 melanoma
MALME-3M melanoma = tested on: MALME-3M melanoma
MCF7 breast = tested on: MCF7 breast
MDA-MB-435 = tested on: MDA-MB-435
NCI-H226 lung = tested on: NCI-H226 lung
OVCAR-3 ovarian = tested on: OVCAR-3 ovarian
OVCAR-4 ovarian = tested on: OVCAR-4 ovarian
SK-OV-3 ovarian = tested on: SK-OV-3 ovarian
SN12C renal = tested on: SN12C renal
SNB-75 CNS = tested on: SNB-75 CNS
SW-620 colon = tested on: SW-620 colon
U251 CNS = tested on: U251 CNS

CN(/N=C/c1ccc(Cl)c(Cl)c1)C1=NCCCCN1
TGI (786-0 renal): 47.8 µM
TGI (A498 renal): 49.2 µM
TGI (BT-549 breast): > 100 µM
TGI (CCRF-CEM leukemia): 83.5 µM
TGI (HCT-15 colon): 81.6 µM
TGI (HL-60(TB) leukemia): 65.5 µM
TGI (HOP-62 NSCLC): 35.4 µM
TGI (K-562 leukemia): 69.3 µM
TGI (M14 melanoma): 29.9 µM
TGI (MALME-3M melanoma): 32.5 µM
TGI (MCF7 breast): 54.3 µM
TGI (MDA-MB-435): 36 µM
TGI (NCI-H226 lung): 39.2 µM
TGI (OVCAR-3 ovarian): > 100 µM
TGI (OVCAR-4 ovarian): > 100 µM
TGI (SK-OV-3 ovarian): > 100 µM
TGI (SN12C renal): > 100 µM
TGI (SNB-75 CNS): > 100 µM
TGI (SW-620 colon): 38 µM
TGI (U251 CNS): > 100 µM

CC(=O)OC12CC[N+]3(C)CCCCC3C1=Nc1ccccc12 (stereo not given)
TGI (786-0 renal): > 100 µM
TGI (A498 renal): > 100 µM
TGI (BT-549 breast): > 100 µM
TGI (CCRF-CEM leukemia): > 100 µM
TGI (HCT-15 colon): > 100 µM
TGI (HL-60(TB) leukemia): > 100 µM
TGI (HOP-62 NSCLC): > 100 µM
TGI (K-562 leukemia): > 100 µM
TGI (M14 melanoma): > 100 µM
TGI (MALME-3M melanoma): > 100 µM
TGI (MCF7 breast): > 100 µM
TGI (MDA-MB-435): > 100 µM
TGI (NCI-H226 lung): > 100 µM
TGI (OVCAR-3 ovarian): > 100 µM
TGI (OVCAR-4 ovarian): > 100 µM
TGI (SK-OV-3 ovarian): > 100 µM
TGI (SN12C renal): > 100 µM
TGI (SNB-75 CNS): > 100 µM
TGI (SW-620 colon): > 100 µM
TGI (U251 CNS): > 100 µM

Cc1cccc2c(NCCN(C)C)c3cccc(C(=O)NCCN(C)C)c3nc12
TGI (786-0 renal): 3.38 µM
TGI (A498 renal): 4.06 µM
TGI (BT-549 breast): 4.55 µM
TGI (CCRF-CEM leukemia): 0.813 µM
TGI (HCT-15 colon): 13.9 µM
TGI (HL-60(TB) leukemia): 0.637 µM
TGI (HOP-62 NSCLC): 3.93 µM
TGI (K-562 leukemia): 0.065 µM
TGI (M14 melanoma): 2.44 µM
TGI (MALME-3M melanoma): 1.62 µM
TGI (MCF7 breast): 2.85 µM
TGI (MDA-MB-435): 1.1 µM
TGI (NCI-H226 lung): 5.68 µM
TGI (OVCAR-3 ovarian): 5.54 µM
TGI (OVCAR-4 ovarian): > 100 µM
TGI (SK-OV-3 ovarian): 27.1 µM
TGI (SN12C renal): 1.69 µM
TGI (SNB-75 CNS): 0.953 µM
TGI (SW-620 colon): 7.78 µM
TGI (U251 CNS): 3.82 µM

CN1c2c(nc(N)[nH]c2=O)NCC1CCNc1ccc(C(=O)NC(CCC(=O)O)C(=O)O)cc1 (stereo not given)
TGI (786-0 renal): 1840 µM
TGI (A498 renal): 2820 µM
TGI (BT-549 breast): 2750 µM
TGI (CCRF-CEM leukemia): 1000 µM
TGI (HCT-15 colon): 3010 µM
TGI (HL-60(TB) leukemia): 2250 µM
TGI (HOP-62 NSCLC): 1930 µM
TGI (K-562 leukemia): 841 µM
TGI (M14 melanoma): 1770 µM
TGI (MALME-3M melanoma): 2770 µM
TGI (MCF7 breast): 2030 µM
TGI (MDA-MB-435): 1770 µM
TGI (NCI-H226 lung): 3050 µM
TGI (OVCAR-3 ovarian): 2460 µM
TGI (OVCAR-4 ovarian): 2400 µM
TGI (SK-OV-3 ovarian): 2350 µM
TGI (SN12C renal): 2350 µM
TGI (SNB-75 CNS): 2660 µM
TGI (SW-620 colon): 1810 µM
TGI (U251 CNS): 2080 µM

CCO[C@H]1O[C@@H]2OC3(C)CCC4[C@H](C)CCC([C@H]1C)[C@]42OO3 (stereo not given in full)
TGI (786-0 renal): > 100 µM
TGI (A498 renal): > 100 µM
TGI (BT-549 breast): > 100 µM
TGI (CCRF-CEM leukemia): > 100 µM
TGI (HCT-15 colon): > 100 µM
TGI (HL-60(TB) leukemia): 13.2 µM
TGI (HOP-62 NSCLC): > 100 µM
TGI (K-562 leukemia): > 100 µM
TGI (M14 melanoma): > 100 µM
TGI (MALME-3M melanoma): > 100 µM
TGI (MCF7 breast): > 100 µM
TGI (MDA-MB-435): > 100 µM
TGI (NCI-H226 lung): > 100 µM
TGI (OVCAR-3 ovarian): 99.8 µM
TGI (OVCAR-4 ovarian): > 100 µM
TGI (SK-OV-3 ovarian): > 100 µM
TGI (SN12C renal): > 100 µM
TGI (SNB-75 CNS): > 100 µM
TGI (SW-620 colon): > 100 µM
TGI (U251 CNS): > 100 µM

C1=CCC[C@@H]2CN3CCCC/C=C\CCCC[C@H]4C[C@H](CN(CCCCCCCC1)C4)[C@H]2CC3
TGI (786-0 renal): 15.9 µM
TGI (A498 renal): 30.3 µM
TGI (BT-549 breast): 29.8 µM
TGI (CCRF-CEM leukemia): 34.9 µM
TGI (HCT-15 colon): 18.3 µM
TGI (HL-60(TB) leukemia): 28.4 µM
TGI (HOP-62 NSCLC): 15.6 µM
TGI (K-562 leukemia): 24 µM
TGI (M14 melanoma): 18.7 µM
TGI (MALME-3M melanoma): 17.5 µM
TGI (MCF7 breast): 16.4 µM
TGI (MDA-MB-435): 15.7 µM
TGI (NCI-H226 lung): > 50 µM
TGI (OVCAR-3 ovarian): 15.2 µM
TGI (OVCAR-4 ovarian): 26.8 µM
TGI (SK-OV-3 ovarian): > 50 µM
TGI (SN12C renal): 21 µM
TGI (SNB-75 CNS): 16.5 µM
TGI (SW-620 colon): 16.4 µM
TGI (U251 CNS): 15.4 µM

O=C1/C(=C/c2ccccc2)CCc2ccc([N+](=O)[O-])cc21
TGI (786-0 renal): > 80.3 µM
TGI (A498 renal): > 100 µM
TGI (BT-549 breast): > 94.4 µM
TGI (CCRF-CEM leukemia): > 100 µM
TGI (HCT-15 colon): > 100 µM
TGI (HL-60(TB) leukemia): > 100 µM
TGI (HOP-62 NSCLC): > 100 µM
TGI (K-562 leukemia): > 100 µM
TGI (M14 melanoma): > 96.4 µM
TGI (MALME-3M melanoma): > 100 µM
TGI (MCF7 breast): > 100 µM
TGI (MDA-MB-435): > 100 µM
TGI (NCI-H226 lung): > 100 µM
TGI (OVCAR-3 ovarian): > 100 µM
TGI (OVCAR-4 ovarian): > 100 µM
TGI (SK-OV-3 ovarian): > 100 µM
TGI (SN12C renal): > 100 µM
TGI (SNB-75 CNS): > 74.6 µM
TGI (SW-620 colon): > 100 µM
TGI (U251 CNS): > 100 µM
